≈ marks a conversion by molar mass, not a printed value. Where two headings read alike, the source gives them in different places.

Series [1] in a line: Aqueous solubility of hydrophobic drugs in simulated intestinal fluid with bile and lipolytic products. Format: physicochemical. The settings on record: pH 6.5. How it is done: As stated above, the aqueous solubilities of hydrophobic drugs can be increased by incorporation into mixed micelles, formed by bile salts and lipolytic products of triglyceride oil digestion.
An aqueous medium was prepared to simulate the intestinal environment using the following components:
100 mls pH 6.5 Tris-maleate buffer solution containing:
The medium was prepared as described in the in vitro test procedure described above. To this simulated intestinal fluid a series of different components were added to evaluate the enhancement of the aqueous solubility of a range of hydrophobic drugs. The components which were added were:
Experiment (i) Nothing (control experiment)
15 mM crude ox gallbladder bile
15 mM crude ox gallbladder bile +
500 mg of medium chain lipolytic
products (137 mg capric acid, 98 mg
glyceryl monocaprate, 151 mg
caprylic acid and 114 mg glyceryl
500 mg of long chain lipolytic
products (307 mg oleic acid and
193 mg glyceryl monooleate). […]
Then 100 mg of drug, in powder form, was added to the reaction medium, the pH was adjusted to 6.5 and the medium was mixed for 21/2 hours. At this time a sample was taken from the vessel, filtered through a 0.2 micron filter and the quantity of drug in solution in the simulated intestinal fluid was determined by a specific HPLC method.

Series [2] in a line: Aqueous solubility of progesterone in buffer, bile and lipolytic products. The series is classed as physicochemical. The conditions noted are these: for solubility at 1 h / solubility at 2 h: pH 6.5, 37° C.; for solubility at 1 h: read-out: Progesterone solubility after 60 minutes; for solubility at 2 h: read-out: Progesterone solubility after 120 minutes. How it is done:
The solubility of progesterone was determined as follows:
The following five aqueous media were each prepared at 37° C. in the pH-Stat reaction vessel. The pH of each solution was adjusted to exactly 6.50 by the addition of an appropriate volume of 1.0 molar sodium hydroxide solution. […]
pH 6.50 tris-maleate buffer solution (containing 5 mM calcium chloride and 150 mM sodium chloride) pH 6.50 tris-maleate buffer solution+15 mM ox bile pH 6.50 tris-maleate buffer solution+15 mM ox bile+0.5% hydrophilic surfactant (Cremophor RH40) pH 6.50 tris-maleate buffer solution+15 mM ox bile+medium chain lipolytic products viz 53% by weight of caprylic acid-monocaprylate (2:1 molar ratio) and 47% by weight of capric acid-monocaprate (2:1 molar ratio) […]
pH 6.50 tris maleate buffer solution+15 mM ox bile+0.5% long chain lipolytic products viz oleic acid and monoolein (2:1 molar ratio) The following procedures was performed in triplicate. 15 mls of each of the above aqueous media were added to approximately 20 mgs (excess) of progesterone in 21 ml glass vials. Each vial was whirlmixed and then maintained at 37° C. in an ultrasonic bath for 120 minutes. After 60 and 120 minutes, 3 ml of each solution were extracted for progesterone solubility determination by HPLC, using the following standard procedure:
Each sample is filtered through a 13 mm 0.2 μm PVDF syringe filter (supplied by Whatman®). The first 1.5 ml of filtrate is discarded. 0.8 ml of the remaining filtrate is combined with 0.8 ml of acetonitrile (the mobile phase) in an amber glass vial. The vial is then hermetically sealed and shaken by hand and then analysed.

The test system of series [3] is Pancreatic lipase. Description: In vitro lipolysis test (pH-stat titration) of fractionated coconut oil (FCO) with hydrophilic and lipophilic surfactants. The series is classed as biochemical. The settings on record: FCO with Cremophor RH40 and lipophilic surfactant; FIG. 2.
Description: In Vitro Test for Determining the Suitability of Hydrophilic and Lipophilic Surfactants
Pancreatic lipase in the presence of colipase catalyses the lipolysis (also termed hydrolysis or de-esterification) of emulsified oils, a process that results in the production of fatty acids. The rate of fatty acid generation, and thus a measure of the rate of lipolysis, can be followed via continuous titration with a pH-stat as described below.
The pH-stat should comprise, for example, a pH-meter, an autoburette and an autotitration unit. These instruments can be obtained from Radiometer A/S, Copenhagen, Denmark as product numbers PHM82, ABU80 and TTT80, respectively.
The reaction should be performed in a glass thermostatted vessel maintained at 37.5±0.5° C. This vessel should have an internal diameter of approximately 7.5 cm and a height of approximately 7.0 cm. During an experiment the reaction vessel should be placed beneath the titration assembly unit so that the tips of the pH-electrodes and the stirrer are all at least 1 cm beneath the liquid level. […]
At time=30 minutes, titrate the pH up to precisely 6.50 (e.g. using 1.0M NaOH using the autotitrator). Record the volume of titrant dispensed, then re-zero the titrant display reading on the autotitrator. […]
Where [4] appears, read: Buffer + 15 mM ox bile + 0.5% MCLPs.

For `CC(C)(Sc1cc(C(C)(C)C)c(O)c(C(C)(C)C)c1)Sc1cc(C(C)(C)C)c(O)c(C(C)(C)C)c1` [Probucol, probucol], in series [1], the Buffer solubility entry is “below the detection limit of assay”.

Consider `CC(=O)[C@H]1CC[C@H]2[C@@H]3CCC4=CC(=O)CC[C@]4(C)[C@H]3CC[C@]12C` [Progesterone, progesterone], for which the “Further increase in solubility with long chain lipolytic products” value in series [2] (0.5% long chain lipolytic products, vs bile salts) was “approximately 3 fold”. Also, the “Further increase in solubility with medium chain lipolytic products” value in series [2] (0.5% medium chain lipolytic products, vs bile salts) was “approximately 3 fold”. Also, the solubility at 1 h in series [2] (Buffer + 15 mM bile) worked out at 46.6 ± 0.47 µg/mL; in series [2] (Buffer + 15 mM ox bile + 0.5% LCLPs), 153 ± 6.17 µg/mL; in series [2] (setting [4]), 136 ± 11 µg/mL; in series [2] (aqueous buffer, Buffer alone), 10.1 ± 0.25 µg/mL (≈ 32.1 µM). In addition, the solubility at 2 h was found to be 45.5 ± 1.08 µg/mL in series [2] (Buffer + 15 mM bile); 142 ± 6.31 µg/mL in series [2] (setting [4]); 9.47 ± 1.16 µg/mL (≈ 30.1 µM) in series [2] (aqueous buffer, Buffer alone). In addition, the “Increase in solubility in bile salts compared to buffer alone” value in series [2] (bile salts vs buffer alone) is on record as “approximately 4.5 fold”.

Regarding `CCCCCCCC/C=C\CCCCCCCC(=O)O` [oleic acid], the “Ability to overcome inhibitory effects of Cremophor RH40 on rate of FCO lipolysis” value in series [3] was “capable of overcoming the inhibitory effects”.

For orientation: solubility means the concentration that dissolves in the medium under given conditions.
